Results taken from EP1246919B1, “PROGENITOR CELL PR[…] AND RELATED METHODS AND PRODUCTS” (ImClone Systems Incorporated, priority 1999, dated 2001).

Experiments:
BALB/c mice [1] = experiment: Murine 5-FU chemoprotection model; assay type: in vivo; conditions: 5-FU 150 mg/kg intraperitoneally
Method: A dose regimen was established to determine whether FRIL protects mice from death resulting from hematopoietic toxicity of […]. […] This finding was consistent with the understanding that stem cells reside in the bone marrow in predominantly a quiescent state. Bone marrow cellularity in these mice was restored after 2 weeks by the recruitment of the dormant progenitors and responsive stem cells that escaped toxicity of 5-FU. Administration of a second dose of 5-FU (also at 150 mg/kg) 3-7 days after the initial dose killed those stem cells and progenitors recruited into S-phase in response to the first treatment of 5-FU (Lerner and Harrison, supra).
In this study described below, the pretreatment dose regimen for Dl-FRIL described above (5 mg/kg x 4 days) was selected based on the requirement of treating animals with cytokines for several days prior to starting chemotherapy and because Dl-FRIL-treated mice easily tolerated doses (5 mg/kg) that were 10- to 100-fold greater than that used for cytokines. […]

BALB/c mice [2] = conditions: single dose of 5-FU (150 mg/kg); Lerner and Harrison; cited from earlier work
Dl-FRIL = biological target: T1, Dl-FRIL (Lablab purpureus, UniProt Q9ZTA9); conditions: Mo et al., Glycobiology 9:173-179, 1999; cited from earlier work
T1 sequence (Q9ZTA9 9-124 limits assumed): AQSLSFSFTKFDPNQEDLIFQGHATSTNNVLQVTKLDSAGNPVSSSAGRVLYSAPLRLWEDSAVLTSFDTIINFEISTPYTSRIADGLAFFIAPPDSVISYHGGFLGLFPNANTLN
T1 sequence (Q9ZTA9 125-272 limits assumed): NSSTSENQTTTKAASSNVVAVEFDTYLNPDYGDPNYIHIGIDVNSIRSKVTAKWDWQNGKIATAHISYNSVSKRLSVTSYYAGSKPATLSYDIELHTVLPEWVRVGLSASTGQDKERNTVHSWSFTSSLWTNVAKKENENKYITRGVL

[3] = biological target: FLT3 receptor on FLT3-transfected 3T3 cells (murine FLT3 extracellular portion/human Fms chimera or full length human receptor, not told apart at that place); experiment: cell-based or functional assay

O=c1[nH]cc(F)c(=O)[nH]1 [5-FU, 5-fluorouracil]
deaths after a single dose (BALB/c mice [1]): No mice died
reduction of bone marrow cellularity (BALB/c mice [2]): > 90%

OC[C@H]1O[C@H](O[C@H]2O[C@H](CO)[C@@H](O)[C@H](O)[C@H]2O)[C@H](O)[C@@H](O)[C@@H]1O [α,α-trehalose]
greater potency than mannose (Dl-FRIL): 3.6 fold

Pv-FRIL, mannose-binding lectin isolated from red kidney bean (Phaseolus vulgaris) extract, or purified from PHA-LCM
Specific Activity (u/mg) in the Flt3 3T3 assay, Superdex 75 fraction (Pv-FRIL purified to near homogeneity from PHA-LCM) [3]: 244000 u/mg
